“Also recorded” adds a separate entry of the source.
Legend:
ADV = assay: HDP-CDV given to patients with viral infections, virology data
EBV = assay: as above; conditions: 4 mg/kg BIW
HSV = assay: as above; conditions: patient 2 mo, 4.63 kg, neonatal HSV encephalitis; 4 mg/kg BIW; to below the limit of detection
[1] = Phase 1 comparative bioavailability (solution vs tablet) and food effect study; conditions: for Plasma HDP-CDV CL/F / Plasma HDP-CDV Tmax / Plasma HDP-CDV AUC0-inf / Plasma HDP-CDV AUC0-last / Plasma HDP-CDV Cmax / Plasma HDP-CDV t1/2: single oral dose; for Plasma HDP-CDV CL/F / Plasma HDP-CDV Tmax / Plasma HDP-CDV AUC0-inf / Plasma HDP-CDV AUC0-last / Plasma HDP-CDV Cmax / Plasma HDP-CDV t1/2 / Plasma Cidofovir CL/F: healthy volunteers; for Plasma HDP-CDV CL/F / Plasma HDP-CDV AUC0-inf / Plasma HDP-CDV AUC0-last / Plasma HDP-CDV Cmax / Plasma HDP-CDV t1/2 / Plasma Cidofovir CL/F: mean; for Plasma HDP-CDV Tmax: median;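 on all read-outs here: plasma levels quantified by validated LC-MS/MS, LLOQ 0.1 ng/mL for HDP-CDV and 0.5 ng/mL for CDV, crossover design with 14-day washout between single doses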
[2] = patient 21 mo, 10 kg, 2 mg/kg BIW
[3] = patient, 67 kg, 2 mg/kg BIW, 4 mg/kg BIW
[4] = patient, 70 kg, 2 mg/kg every three days
[5] = 40 mg tablet, fed (high fat breakfast)

In the case of CCCCCCCCCCCCCCCCOCCCOP(=O)(O)COC(CO)Cn1ccc(N)nc1=O (stereo not drawn) [HDP-CDV], the “ADV in stool on therapy” value (ADV; patient 9 months, 6.58 kg, disseminated ADV, 3 mg/kg BIW) is reported as “decreased by a similar amount”, the “stool ADV decline” value (ADV; patient 16 mo, 10.4 kg, 4 mg/kg BIW, 3 weeks) is reported as “ADV declined approximately 1 log10 over” and the “Plasma ADV after 3 weeks of therapy” value (ADV; patient 16 mo, 10.4 kg, 4 mg/kg BIW, from 809 c/ml) is reported as “declined from 809 c/ml to undetectable”. The “plasma ADV viremia after discontinuation (rebound)” value (ADV; [2]) was “CDV when it rebounded to 100 copies/ml”, the “response in stool viral load” value (ADV; [2]) was “load (<10-fold)” and the “plasma ADV viremia on treatment” value (ADV; patient 21 mo, 10 kg, 2 mg/kg BIW, baseline 100 copies/mL) was “became undetectable and stayed”. The “decrease in plasma ADV” value (ADV; patient, 14.1 kg, 4 mg/kg BIW) was “ADV2. A ~2 log10 decrease in plasma”, the “ADV in blood 4 days after one dose” value (ADV; patient, 19.1 kg, disseminated ADV, 60 mg BIW, from 51,000 c/mL) was 100 c/mL in 4 days after one dose and the “Adenovirus decline in plasma” value (ADV; patient, 65 kg, 2 mg/kg BIW, to the limit of detection) was “ADV 5 (plasma). Adenovirus declined 2.6 log10”. The “ADV viruria initial decline” value (ADV; [3]) was “respond well initially with a 2.4 log10”, the “ADV viruria rebound, distance from baseline” value (ADV; [3]) was “decline only to rebound to within 0.7 log10” and the “ADV plasma viremia decline” value (ADV; patient, 67 kg, 2 mg/kg BIW, 4 mg/kg BIW, from 5.1 log10 to the limit of detection) was “declined 3.1 logs from 5.1 log10 to the limit”. For the same compound, the “ADV viremia approximately two weeks after D/C” value (ADV; [4]) was “HDP-CDV, ADV viremia rebounded”, the “Colon biopsy for ADV after therapy” value (ADV; [4]) was “negative” and the ADV viremia decrease (ADV; patient, 70 kg, 2 mg/kg every three days, after 3 weeks) was over 3 log10. For the same compound, the “ADV viremia after 3 weeks” value (ADV; patient, 70 kg, 2 mg/kg every three days, from 430,000 copies/mL) was “copies/mL to undetectable after 3 weeks”, the stool viral load (ADV; patient, 81 kg, ADV pneumonia, 2 mg/kg BIW) was “modest decline in stool viral load” and the “Plasma ADV decline” value (ADV; patient, 81 kg, ADV pneumonia, 2 mg/kg BIW, 10 days/4 doses) was “ADV 12. Plasma ADV declined 2.4 log10”. For the same compound, the ADV viremia decrease (ADV; patient, 108 kg, 3 mg/kg first dose, 2 mg/kg BIW thereafter, after approximately 2-3 weeks) was about 2 log10, the “ADV viremia after first two weeks” value (ADV; patient, 4 mg/kg BIW, 3 doses, from 1.5 million) was “ADV viremia from 1.5 million to 98,000 c/ml” and the “decrease in ADV viremia” value (ADV; patient, 4 mg/kg BIW, first two weeks, 3 doses) was “This patient had a 1.2 log10 decrease in”. For the same compound, the “decrease in EBV levels in blood” value (EBV; patient 6 months, 6 kg, EBV associated PTLD, four days after starting) was “There was approximately a 5-fold decrease”, the “blood EBV viral load after one month of therapy” value (EBV; patient 22 months, 13.8 kg, from >50,000,000 copies/mL) was “copies/mL to 100,000 copies/mL over one” and the “replication of EBV as measured by plasma PCR” value (EBV; patient, 27 kg, EBV-associated PTLD) was “There is no evidence of on-going”. For the same compound, the “HSV in the CSF decrease” value (HSV) was > 1.8 log10 copies/mL to below the limit of, the “Plasma HDP-CDV CL/F” value ([1]; 40 mg solution, fasted) was 77.5 L/h and the “Plasma HDP-CDV Tmax” value ([1]; 40 mg solution, fasted) was 2.00 h. For the same compound, the “Plasma HDP-CDV AUC0-inf” value ([1]; 40 mg tablet, fasted) was 496 ng·h/mL, the “Plasma HDP-CDV AUC0-last” value ([1]; 40 mg tablet, fasted) was 473 ng·h/mL and the “Plasma HDP-CDV CL/F” value ([1]; 40 mg tablet, fasted) was 86.1 L/h. The “Plasma HDP-CDV Cmax” value ([1]; 40 mg tablet, fasted) was 73.9 ng/mL, the “Plasma HDP-CDV t1/2” value ([1]; 40 mg tablet, fasted) was 7.52 h and the “Plasma HDP-CDV Tmax” value ([1]; 40 mg tablet, fasted) was 3.00 h. For the same compound, the “Plasma HDP-CDV AUC0-inf” value [1, 5] was 367 ng·h/mL, the “Plasma HDP-CDV AUC0-last” value [1, 5] was 340 ng·h/mL and the “Plasma HDP-CDV CL/F” value [1, 5] was 119 L/h. For the same compound, the “Plasma HDP-CDV Cmax” value [1, 5] was 39.4 ng/mL, the “Plasma HDP-CDV t1/2” value [1, 5] was 6.65 h and the “Plasma HDP-CDV Tmax” value [1, 5] was 6.00 h. For the same compound, the “food effect on HDP-CDV absorption and bioavailability” value ([1]; 40 mg tablet, high fat meal vs fasted) was “reduced peak concentration and delayed Tmax; also recorded: significant food effect”, the “Plasma Cidofovir CL/F” value ([1]; after 40 mg HDP-CDV solution, fasted) was 40.8 L/h and the “Plasma Cidofovir CL/F” value ([1]; after 40 mg HDP-CDV tablet, fasted) was 44.3 L/h. For the same compound, the “Plasma Cidofovir CL/F” value ([1]; after 40 mg HDP-CDV tablet, fed) was 46.9 L/h, the “food effect on CDV concentrations” value ([1]; after 40 mg HDP-CDV tablet, high fat meal vs fasted) was “unaffected by the presence of food; also recorded: no food effect” and the “HDP-CDV Ln(AUCinf) Test Geometric LSM” value ([1]; fed tablet (test), TOST) was 343.5310 ng·h/mL. For the same compound, the “HDP-CDV Ln(AUClast) Test Geometric LSM” value ([1]; fed tablet (test), TOST) was 323.8453 ng·h/mL, the “HDP-CDV Ln(Cmax) Test Geometric LSM” value ([1]; fed tablet (test), TOST) was 37.0360 ng/mL and the “HDP-CDV Ln(AUCinf) Ratio [% Ref]” value ([1]; in vivo) was 72.17 % Ref. For the same compound, the “HDP-CDV Ln(AUClast) Ratio [% Ref]” value ([1]; in vivo) was 70.89 % Ref, the “HDP-CDV Ln(Cmax) Ratio [% Ref]” value ([1]; in vivo) was 52.56 % Ref and the “absorption following a single oral administration” value ([1]; solution and tablet formulation, 40 mg) was “readily absorbed”.

Source: patent publication US20150087619A1, “METHOD OF MITIGATING VIRUS ASSOCIATED END-ORGAN DAMAGE” (CHIMERIX, INC., priority 2012, published 2015)
